Consider twelve compounds from ChEMBL document CHEMBL1201862, “PubChem BioAssay data set” (2004).

Test systems include BT-549; CCRF-CEM; DU-145; HCT-116; HCT-15; HOP-62; HOP-92; HT-29; MOLT-4; NCI-H226; NCI-H23; OVCAR-3; OVCAR-4; SF-268; SK-MEL-28; SK-MEL-2; SK-MEL-5; SK-OV-3; SNB-75; T47D.
What all share (assay): inhibition of tumour cell growth, NCI panel, 48 h

Structures are written as SMILES.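 Following 48 hours of exposure in 96-well plates, responses at five concentrations were used to interpolate endpoints linearly. GI50 = concentration required for 50% inhibition of growth.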 Active and inactive are the calls of the source. Rule as the data show it: active = GI50 up to about 1.1 µM and inactive = higher.

Turning to `CCN1CC2=C(OC(N)=C(C#N)C2c2ccc(Cl)cc2)/C(=C/c2ccc(Cl)cc2)C1` (stereo not given), the GI50 with BT-549 was 70.8 µM (inactive); in the experiment with CCRF-CEM it was 18.3 µM (inactive); in the experiment on DU-145 it was 42.4 µM (inactive); with HCT-116 it was 14.1 µM (inactive); with HCT-15 it was 45.8 µM; with HOP-62, 18.2 µM (inactive). Moreover, the GI50 with HOP-92 is 0.527 µM (active); with HT-29 it was 38.7 µM (inactive); in the experiment with MOLT-4 it was 3.19 µM (inactive); in the experiment on NCI-H226 it was 31 µM (inactive); in the experiment on NCI-H23 it was 22.5 µM (inactive); in the experiment with OVCAR-3, 21.8 µM (inactive). The GI50 with OVCAR-4 is 32.4 µM (inactive); in the experiment with SF-268 it was 17.8 µM (inactive); in the experiment on SK-MEL-28, 14.9 µM (inactive); with SK-MEL-2 it was 27.6 µM (inactive); with SK-MEL-5, 13.1 µM (inactive); with SK-OV-3, 18.7 µM (inactive). Moreover, the GI50 in the experiment on SNB-75 was 12.5 µM (inactive).
`CC(C)(C)OC(=O)NCCNC(=O)OCc1ccccc1`: the GI50 with BT-549 was > 100 µM (inactive); in the experiment with DU-145 it was > 100 µM (inactive); in the experiment with HCT-15 it was above 100 µM; in the experiment with HOP-62, > 100 µM (inactive); in the experiment on HOP-92, > 100 µM (inactive); with HT-29, > 100 µM (inactive). Moreover, the GI50 in the experiment with MOLT-4, with NCI-H226, in the experiment on NCI-H23, in the experiment on OVCAR-3, in the experiment with SF-268 and with SK-MEL-28 was > 100 µM (inactive) throughout. Also, the GI50 in the experiment with SK-MEL-2 was > 100 µM (inactive); with SK-MEL-5 it was 50.6 µM (inactive); in the experiment with SK-OV-3, > 100 µM (inactive); with SNB-75 it was > 100 µM (inactive).
Turning to `N#Cc1c(-c2ccc(Cl)cc2)c(C#N)c(=O)n(NS(=O)(=O)c2ccccc2)c1O`, the GI50 in the experiment with BT-549 was 13.4 µM (inactive); with CCRF-CEM it was 25.2 µM (inactive); in the experiment on HCT-116 it was 16.2 µM (inactive); in the experiment on HCT-15, 22.3 µM; with HOP-62 it was 27 µM (inactive); in the experiment with HOP-92 it was 19.3 µM (inactive). The GI50 in the experiment on HT-29 is 34.8 µM (inactive); in the experiment on MOLT-4 it was 22.5 µM (inactive); in the experiment on NCI-H226, 28.2 µM (inactive); with OVCAR-4 it was 27.1 µM (inactive); in the experiment with SF-268 it was 35.6 µM (inactive); in the experiment on SK-MEL-28 it was 26.4 µM (inactive). The GI50 was 19.6 µM (inactive) in the experiment with SK-MEL-2, 17.1 µM (inactive) with SK-MEL-5, 21.5 µM (inactive) in the experiment with SK-OV-3 and 34 µM (inactive) in the experiment on SNB-75.
Take `C=CC1(c2ccc3ccccc3c2)OCC(CC)(CC)CO1`: the GI50 was 20.3 µM (inactive) with CCRF-CEM; 45.1 µM (inactive) in the experiment with DU-145; 21.3 µM (inactive) in the experiment with HCT-116; 17.9 µM in the experiment on HCT-15; 27.4 µM (inactive) in the experiment on HOP-62; 23.4 µM (inactive) in the experiment on HOP-92. The GI50 was 20.3 µM (inactive) with HT-29; 18.2 µM (inactive) with MOLT-4; 16.4 µM (inactive) in the experiment with NCI-H226; 20.1 µM (inactive) in the experiment with NCI-H23; 25.2 µM (inactive) with OVCAR-3; 41 µM (inactive) with OVCAR-4. Besides, the GI50 in the experiment on SF-268 is 33.3 µM (inactive); in the experiment on SK-MEL-28, 39.4 µM (inactive); in the experiment with SK-MEL-2, 17.7 µM (inactive); in the experiment on SK-MEL-5, 18.5 µM (inactive); with SK-OV-3, 53.1 µM (inactive); in the experiment on SNB-75, 47.6 µM (inactive). Besides, the GI50 in the experiment on T47D is 22.5 µM (inactive).
For the compound `Fc1ccccc1CN1COc2c(cc(Cl)c3cccnc23)C1`, the GI50 in the experiment on DU-145 is 2.62 µM (inactive); in the experiment on HCT-116, 1.26 µM (inactive); in the experiment with HCT-15 it was 0.0165 µM; with HOP-62 it was 1.16 µM (inactive); in the experiment on HOP-92, 3.61 µM (inactive); with HT-29 it was 7.85 µM (inactive). Further, the GI50 is 0.239 µM (active) in the experiment on MOLT-4; 0.624 µM (active) with NCI-H226; 1.6 µM (inactive) in the experiment with NCI-H23; 3.75 µM (inactive) in the experiment on OVCAR-3; 0.596 µM (active) in the experiment on OVCAR-4; 2.62 µM (inactive) in the experiment with SF-268. Besides, the GI50 in the experiment on SK-MEL-28 is 4.25 µM (inactive); in the experiment on SK-MEL-2 it was 3.93 µM (inactive); in the experiment with SK-MEL-5, 0.713 µM (active); in the experiment on SK-OV-3, 6 µM (inactive); in the experiment with SNB-75, 1.56 µM (inactive); in the experiment with T47D, 3.6 µM (inactive).
With `O=C1Nc2c(Cl)cc(Cl)cc2/C1=N/NC(=O)c1ccccc1O`, the GI50 with BT-549 was 14.5 µM (inactive); in the experiment on CCRF-CEM, 11.2 µM (inactive); in the experiment on HCT-116, 13.6 µM (inactive); with HCT-15, 14.8 µM; in the experiment on HOP-62, 15.4 µM (inactive); in the experiment with HOP-92, 15 µM (inactive). For the same compound, the GI50 in the experiment with HT-29 is 18.7 µM (inactive); with MOLT-4, 10 µM (inactive); with NCI-H226, 14.8 µM (inactive); in the experiment with NCI-H23, 18.2 µM (inactive); with OVCAR-3, 11.2 µM (inactive); with OVCAR-4, 13.4 µM (inactive). For the same compound, the GI50 with SK-MEL-28 was 15.5 µM (inactive); in the experiment on SK-MEL-2, 12.7 µM (inactive); with SK-MEL-5, 14.8 µM (inactive); in the experiment on SK-OV-3, 16.8 µM (inactive); in the experiment on SNB-75, 9.77 µM (inactive).
Regarding `Clc1cccc(/C=c2\nc(-c3ccccc3)n3c2nc2ccccc23)c1`, the GI50 in the experiment on BT-549 was 88.3 µM (inactive); in the experiment on CCRF-CEM, > 100 µM (inactive); in the experiment on DU-145 it was > 100 µM (inactive); in the experiment with HCT-116, > 100 µM (inactive); in the experiment with HCT-15, above 100 µM; with HOP-62 it was 71.3 µM (inactive). The GI50 with HOP-92 was 4.38 µM (inactive); with HT-29, > 100 µM (inactive); with MOLT-4 it was > 100 µM (inactive); with NCI-H226, > 100 µM (inactive); in the experiment with NCI-H23, 72.8 µM (inactive); with OVCAR-3, > 100 µM (inactive). Moreover, the GI50 in the experiment on OVCAR-4 is > 100 µM (inactive); in the experiment on SF-268, 40.8 µM (inactive); in the experiment with SK-MEL-28 it was > 100 µM (inactive); in the experiment on SK-MEL-2, > 100 µM (inactive); in the experiment with SK-MEL-5 it was > 100 µM (inactive); with SK-OV-3, 57.5 µM (inactive). For the same compound, in the experiment with SNB-75, the GI50 is 20 µM (inactive).
With `COc1ccc(P2(=S)OC(C)(C)C(C)(C)O2)cc1`, the GI50 with CCRF-CEM was > 100 µM (inactive); with DU-145, > 100 µM (inactive); in the experiment on HCT-116 it was > 100 µM (inactive); in the experiment on HCT-15 it was above 100 µM; in the experiment on HOP-62, > 100 µM (inactive); in the experiment with HOP-92, > 100 µM (inactive). Moreover, the GI50 in the experiment with HT-29, with MOLT-4, in the experiment on NCI-H226, in the experiment with NCI-H23, in the experiment with OVCAR-3 and in the experiment with OVCAR-4 was > 100 µM (inactive) in each case. Moreover, the GI50 in the experiment on SK-MEL-28 is > 100 µM (inactive); with SK-MEL-2 it was > 100 µM (inactive); in the experiment on SK-MEL-5, > 100 µM (inactive); in the experiment on SNB-75 it was > 100 µM (inactive); in the experiment with T47D, 6.93 µM (inactive).
Turning to `CS/C(=N\C#N)S/C=C/C(=O)c1ccc(Cl)cc1`, the GI50 in the experiment on CCRF-CEM is 78.5 µM (inactive); in the experiment with DU-145 it was 25.6 µM (inactive); in the experiment with HCT-116 it was 18.5 µM (inactive); in the experiment with HCT-15, 30.2 µM; in the experiment with HOP-62 it was 38.2 µM (inactive); in the experiment on HOP-92 it was 88.5 µM (inactive). The GI50 in the experiment on HT-29 is 21.8 µM (inactive); in the experiment with MOLT-4 it was < 0.01 µM (active); with NCI-H23, 24.9 µM (inactive); in the experiment with OVCAR-3 it was 15.2 µM (inactive); in the experiment with OVCAR-4, 64.7 µM (inactive); with SF-268 it was 22.5 µM (inactive). The GI50 was 20.6 µM (inactive) with SK-MEL-28; 17.6 µM (inactive) with SK-MEL-2; 15.9 µM (inactive) with SK-MEL-5; 42.7 µM (inactive) in the experiment on SK-OV-3; 43 µM (inactive) in the experiment with SNB-75; 25 µM (inactive) in the experiment with T47D.
`CC(=O)OCCn1cnc2nc(Nc3ccccc3)nc(Cl)c21`: the GI50 in the experiment with CCRF-CEM is 69.2 µM (inactive); in the experiment with DU-145 it was > 100 µM (inactive); with HCT-116 it was 71.1 µM (inactive); with HCT-15, 45.4 µM; in the experiment with HOP-62, > 100 µM (inactive); in the experiment on HOP-92, 13.6 µM (inactive). The GI50 in the experiment with HT-29 is > 100 µM (inactive); in the experiment with MOLT-4, 54.2 µM (inactive); in the experiment with NCI-H226 it was > 100 µM (inactive); with NCI-H23, > 100 µM (inactive); in the experiment with OVCAR-3, > 100 µM (inactive); in the experiment with OVCAR-4 it was 43.3 µM (inactive). For the same compound, the GI50 with SF-268 is > 100 µM (inactive); in the experiment with SK-MEL-28 it was > 100 µM (inactive); in the experiment on SK-MEL-5, 60.8 µM (inactive); in the experiment with SK-OV-3, > 100 µM (inactive); in the experiment on T47D, 40.7 µM (inactive).
For the compound `CNC(C)Cc1ccccc1O` (stereo not given), the GI50 in the experiment on CCRF-CEM is > 100 µM (inactive); in the experiment with HCT-116, > 100 µM (inactive); in the experiment on HCT-15, 8.71 µM; in the experiment on HOP-62, > 100 µM (inactive); with HOP-92 it was > 100 µM (inactive); in the experiment with HT-29, > 100 µM (inactive). The GI50 in the experiment with MOLT-4, in the experiment on NCI-H226, in the experiment with NCI-H23, in the experiment on OVCAR-3, in the experiment on OVCAR-4 and with SF-268 was > 100 µM (inactive) in each case. The GI50 in the experiment with SK-MEL-28, in the experiment with SK-MEL-2, with SK-MEL-5, in the experiment on SK-OV-3 and with SNB-75 was > 100 µM (inactive) in each case.
For the compound `COC(=O)CC1(O)C(/C=C/c2ccccc2)C(C(=O)OC)C(=O)C(C(=O)OC)C1C(=O)OC` (stereo not given), the GI50 was 48.3 µM (inactive) in the experiment with CCRF-CEM; > 100 µM (inactive) in the experiment on DU-145; 54 µM (inactive) with HCT-116; above 100 µM with HCT-15; > 100 µM (inactive) with HOP-62; > 100 µM (inactive) in the experiment on HOP-92. Moreover, the GI50 in the experiment on HT-29, in the experiment with MOLT-4, in the experiment with NCI-H226, in the experiment with NCI-H23, in the experiment with OVCAR-3 and in the experiment on OVCAR-4 was > 100 µM (inactive) in each case. In addition, the GI50 in the experiment with SF-268, with SK-MEL-28, with SK-MEL-2, in the experiment on SK-MEL-5 and in the experiment with SK-OV-3 was > 100 µM (inactive) each time.
